Measured values: patent publication US7060822B1, “2-pyrazolin-5-ones” (Abbott GmbH & Co. KG, priority 1999, dated 2006)

`COc1ccc(NC(=O)CC2=NNC(=O)C2=Cc2c[nH]c3ccccc23)cc1` [Example 255, 4-[(Indol-3-yl)methylene]-3-(4-methoxyphenylaminocarbonylmethyl)-2-pyrazolin-5-one] gave a melting point of over 300 °C.
`O=C1NN=C(C2CCC2)C1=Cc1c[nH]c2ccccc12` [Example 259, 3-Cyclobutyl-4-[(indol-3-yl)methylene]-2-pyrazolin-5-one] showed a melting point of over 300 °C.
`O=C1NN=C(c2ccncc2)C1=Cc1c[nH]c2ccccc12` [Example 262, 4-[(Indol-3-yl)methylene]-3-(4-pyridyl)-2-pyrazolin-5-one] showed a melting point of over 300 °C.
In the case of `O=C1NN=C(c2nc3ccccc3s2)C1=Cc1c[nH]c2ccccc12` [Example 268, 3-(Benzothiazol-2-yl)-4-[(indol-3-yl)methylene]-2-pyrazolin-5-one], the melting point is reported as over 300 °C.
In the case of `COc1ccc2nc(C3=NNC(=O)C3=Cc3c[nH]c4ccccc34)sc2c1` [Example 272, 4-[(Indol-3-yl)methylene]-3-(6-methoxybenzothiazol-2-yl)-2-pyrazolin-5-one], the melting point is reported as over 300 °C.
For `CCOC(=O)C1=NNC(=O)C1=Cc1c[nH]c2ccccc12` [Example 283, 3-Ethoxycarbonyl-4-[(indol-3-yl)methylene]-2-pyrazolin-5-one], the melting point was 250 °C (dec.).
With `Cn1cc(C=C2C(=O)NN=C2C2CC2)c2ccc(C(=O)O)cc21` [Example 287, 4-[(6-Carboxy-1-methylindol-3-yl)methylene]-3-cyclopropyl-2-pyrazolin-5-one] the melting point was 237 to 240 °C (dec.).
In the case of `Cn1cc(C=C2C(=O)NN=C2NC2CC2)c2ccccc21` [Example 292, 3-Cyclopropylamino-4-[(1-methylindol-3-yl)methylene]-2-pyrazolin-5-one], the melting point is reported as 160 to 164 °C (dec.).
With `Cn1cc(C=C2C(=O)NN=C2c2cnccn2)c2ccc(C(=O)O)cc21` [Example 304, 4-[(6-Carboxy-1-methylindol-3-yl)methylene]-3-pyrazinyl-2-pyrazolin-5-one] the melting point was over 300 °C.

`O=C1NN=C(C2CC2)C1=Cc1c[nH]c2ccccc12` [Example 256, 3-Cyclopropyl-4-[(indol-3-yl)methylene]-2-pyrazolin-5-one] and `O=C1NN=C(C2CCCC2)C1=Cc1c[nH]c2ccccc12` [Example 263, 3-Cyclopentyl-4-[(indol-3-yl)methylene]-2-pyrazolin-5-one] cannot be ordered by melting point: 300 to 305 °C for the first, 300 to 304 °C for the second.

First: NC(=O)CCC1=NNC(=O)C1=Cc1c[nH]c2ccccc12 [Example 258, 3-(2-Aminocarbonylethyl)-4-[(indol-3-yl)methylene]-2-pyrazolin-5-one]
Second: COC(=O)CCC1=NNC(=O)C1=Cc1c[nH]c2ccccc12 [Example 284, 4-[(Indol-3-yl)methylene]-3-(2-methoxycarbonylethyl)-2-pyrazolin-5-one]
The melting point of the first is higher: 280 to 281 °C for the first, 267 to 269 °C for the second.

`CN(C)C(=O)CCC1=NNC(=O)C1=Cc1c[nH]c2ccccc12` [Example 260, 3-(2-Dimethylaminocarbonylethyl)-4-[(indol-3-yl)methylene]-2-pyrazolin-5-one] and `CN(C)C1=NNC(=O)C1=Cc1c[nH]c2ccccc12` [Example 270, 3-Dimethylamino-4-[(indol-3-yl)methylene]-2-pyrazolin-5-one] fall in the same range of melting point: 258 to 260 °C for the first, 258 to 260 °C for the second.

First: O=C1NN=C(C2CC2)C1=Cc1cn(CCCCO)c2ccccc12 [Example 261, 3-Cyclopropyl-4-{[1-(4-hydroxybutyl)indol-3-yl]methylene}-2-pyrazolin-5-one]
Second: O=C1NN=C(C2CCC2)C1=Cc1cn(CCCCO)c2ccccc12 [Example 286, 3-Cyclobutyl-4-{[1-(4-hydroxybutyl)indol-3-yl]methylene}-2-pyrazolin-5-one]
The melting point of the first is lower: 215 to 216 °C for the first, 220 to 222 °C for the second.

First: CC1(C)C(C2=NNC(=O)C2=Cc2c[nH]c3ccccc23)C1(C)C [Example 264, 4-[(Indol-3-yl)methylene]-3-(2,2,3,3-tetramethylcyclopropyl)-2-pyrazolin-5-one]
Second: CC1CC1C1=NNC(=O)C1=Cc1c[nH]c2ccccc12 (stereo not shown) [Example 265, 4-[(Indol-3-yl)methylene]-3-(2-methylcyclopropyl)-2-pyrazolin-5-one]
The melting point of the first is higher: 296 to 298 °C for the first, 294 to 296 °C for the second.

First: O=C1NN=C(C2CCCCC2)C1=Cc1cn(CCCCO)c2ccccc12 [Example 266, 3-Cyclohexyl-4-{[1-(4-hydroxybutyl)indol-3-yl]methylene}-2-pyrazolin-5-one]
Second: Cn1cc(C=C2C(=O)NN=C2C2CC2)c2ccccc21 [Example 273, 3-Cyclopropyl-4-[(1-methylindol-3-yl)methylene]-2-pyrazolin-5-one]
The melting point of the first is lower: 226 to 227 °C for the first, 245 to 247 °C for the second.

Compared with `O=C1NN=C(c2ccncc2)C1=Cc1cn(CCCCO)c2ccccc12` [Example 267, 4-{[1-(4-Hydroxybutyl)indol-3-yl]methylene}-3-(4-pyridyl)-2-pyrazolin-5-one], `Cn1cc(C=C2C(=O)NN=C2c2cccnc2)c2ccccc21` [Example 275, 4-[(1-Methylindol-3-yl)methylene]-3-(3-pyridyl)-2-pyrazolin-5-one] is higher in melting point: 224 to 225 °C for the first, 230 to 232 °C for the second.

Compared with `O=C1NN=C(c2ccccn2)C1=Cc1c[nH]c2ccccc12` [Example 269, 4-[(Indol-3-yl)methylene]-3-(2-pyridyl)-2-pyrazolin-5-one], `O=C1NN=C(c2ccc[nH]2)C1=Cc1c[nH]c2ccccc12` [Example 271, 4-[(Indol-3-yl)methylene]-3-(pyrrol-2-yl)-2-pyrazolin-5-one] is higher in melting point: 278 to 280 °C for the first, 300 to 302 °C for the second.

First: Cc1cccc2c(C=C3C(=O)NN=C3C3CC3)c[nH]c12 [Example 274, 3-Cyclopropyl-4-[(7-methylindol-3-yl)methylene]-2-pyrazolin-5-one]
Second: Cc1cccc2c(C=C3C(=O)NN=C3C3CC3)cn(C)c12 [Example 290, 3-Cyclopropyl-4-[(1,7-dimethylindol-3-yl)methylene]-2-pyrazolin-5-one]
The melting point of the first is higher: 286 to 288 °C for the first, 258 to 260 °C for the second.

First: COc1ccc2c(c1)c(C=C1C(=O)NN=C1C1CC1)cn2C [Example 288, 3-Cyclopropyl-4-[(5-methoxy-1-methylindol-3-yl)methylene]-2-pyrazolin-5-one]
Second: COc1ccc2c(c1)c(C=C1C(=O)NN=C1OC(C)C)cn2C [Example 295, 3-Isopropoxy-4-[(5-methoxy-1-methylindol-3-yl)methylene]-2-pyrazolin-5-one]
The melting point of the first is lower: 236 to 238 °C for the first, 238 to 239 °C for the second.

First: Cn1cc(C=C2C(=O)NN=C2c2cnccn2)c2ccccc21 [Example 289, 4-[(1-Methylindol-3-yl)methylene]-3-pyrazinyl-2-pyrazolin-5-one]
Second: Cn1cc(C=C2C(=O)NN=C2c2ccno2)c2ccccc21 [Example 302, 3-(5-Isoxazolyl)-4-[(1-methylindol-3-yl)methylene]-2-pyrazolin-5-one]
The melting point of the first is lower: 263 to 265 °C for the first, 271 to 272 °C for the second.

First: Cn1cc(C=C2C(=O)NN=C2C2CCOC2)c2ccccc21 (stereo not shown) [Example 291, 4-[(1-Methylindol-3-yl)methylene]-3-(tetrahydrofuran-3-yl)-2-pyrazolin-5-one]
Second: Cn1cc(C=C2C(=O)NN=C2N)c2ccccc21 [Example 299, 3-Amino-4-[(1-methylindol-3-yl)methylene]-2-pyrazolin-5-one]
The melting point of the first is lower: 208 to 210 °C for the first, 246 to 247 °C for the second.

Compared with `CC(C)OC1=NNC(=O)C1=Cc1cn(C)c2cc(C(=O)O)ccc12` [Example 293, 4-[(6-Carboxy-1-methylindol-3-yl)methylene]-3-isopropoxy-2-pyrazolin-5-one], `Cc1cccc2c(C=C3C(=O)NN=C3OC(C)C)cn(C)c12` [Example 294, 4-[(1,7-Dimethylindol-3-yl)methylene]-3-isopropoxy-2-pyrazolin-5-one] is lower in melting point: 330 to 332 °C for the first, 245 to 247 °C for the second.

Compared with `Cn1cc(C=C2C(=O)NN=C2Nc2ccc(F)cc2)c2ccccc21` [Example 296, 3-(4-Fluorophenylamino)-4-[(1-methylindol-3-yl)methylene]-2-pyrazolin-5-one], `Cn1cc(C=C2C(=O)NN=C2CCc2ccc(N)cc2)c2ccccc21` [Example 298, 3-(4-Aminophenylethyl)-4-[(1-methylindol-3-yl)methylene]-2-pyrazolin-5-one] is lower in melting point: 218 to 219 °C for the first, 192 to 193 °C for the second.

First: Cn1cc(C=C2C(=O)NN=C2NC(=O)C(F)(F)F)c2ccccc21 [Example 297, 4-[(1-Methylindol-3-yl)methylene]-3-trifluoroacetamido-2-pyrazolin-5-one]
Second: Cn1cc(C=C2C(=O)NN=C2C(C)(C)C)c2ccccc21 [Example 303, 4-[(1-Methylindol-3-yl)methylene]-3-tert-butyl-2-pyrazolin-5-one]
The melting point of the first is higher: 252 to 253 °C for the first, 201 to 203 °C for the second.

Compared with `O=C1NN=C(CCc2ccc(Cl)cc2)C1=Cc1c[nH]c2ccccc12` [Example 300, 3-(4-Chlorophenylethyl)-4-[(indol-3-yl)methylene]-2-pyrazolin-5-one], `O=C1NN=C(CCc2ccc(O)cc2)C1=Cc1cc2ccccc2[nH]1` [Example 307, 3-(4-Hydroxyphenylethyl)-4-[(indol-2-yl)methylene]-2-pyrazolin-5-one] is lower in melting point: 271 to 272 °C for the first, 242 to 245 °C for the second.

First: CCOC1=NNC(=O)C1=Cc1cn(C)c2ccccc12 [Example 301, 3-Ethoxy-4-[(1-methylindol-3-yl)methylene]-2-pyrazolin-5-one]
Second: CC(C)OC1=NNC(=O)C1=Cc1cc2ccccc2[nH]1 [Example 306, 4-[(Indol-2-yl)methylene]-3-isopropoxy-2-pyrazolin-5-one]
The melting point of the first is lower: 194 to 196 °C for the first, 221 to 223 °C for the second.

Compared with `Nc1ccc(CCC2=NNC(=O)C2=Cc2cc3ccccc3[nH]2)cc1` [Example 308, 3-(4-Aminophenylethyl)-4-[(indol-2-yl)methylene]-2-pyrazolin-5-one], `NC(=O)c1ccc(CCC2=NNC(=O)C2=Cc2cc3ccccc3[nH]2)cc1` [Example 310, 3-(4-Carbamoylphenylethyl)-4-[(indol-2-yl)methylene]-2-pyrazolin-5-one] is higher in melting point: 187 to 189 °C for the first, 263 to 265 °C for the second.

In the case of `COC(=O)c1ccc(CCC2=NNC(=O)C2=Cc2cc3ccccc3[nH]2)cc1` [Example 309, 3-(4-Methoxycarbonylphenylethyl]-4-[(indol-2-yl)methylene]-2-pyrazolin-5-one], the melting point is reported as 210 to 212 °C.
